In patent publication US5843925A, “Methods for inhibiting angiogenesis, proliferation of endothelial or tumor cells and tumor growth” (American Cyanamid Company, priority 1994, dated 1998):
Counter-ions that a name gives are not always drawn.

Key:
[1] = system: Adult Bovine Aortic Endothelial (ABAE) cell line; assay: Antiproliferative activity in Adult Bovine Aortic Endothelial (ABAE) cell line, PROTOCOL 1; format: cell-based; details: Bos taurus; ABAE cells, 48 hours exposure
Procedure: The antiproliferative activity of the compounds of Formula I in an Adult Bovine Aortic Endothelial (ABAE) cell line and in Human Tumor cells lines is evaluated in three similar assays that measure growth inhibition. The assays are identified as follows: PROTOCOLS 1, 2, and 3 are described in greater detail hereinbelow. In general, according to PROTOCOLS 1 and 2, the target ABAE and/or Human Tumor cells are exposed to the compound of Formula I for 48 hours. PROTOCOL 3 exposes ABAE cells to the compounds for 4 days. A detailed description of the protocol is as follows: The antiproliferative activity of the compounds of Formula I of the present invention is evaluated in a panel comprised of human tumor cell lines and an adult bovine aortic endothelial cell line (ABAE). The human tumor cell lines are from All cell lines are maintained in log phase in RPMI 1640 media, supplemented with 5% fetal calf serum, penicillin/streptomycin and 2 mM L-glutamine. Cultures are renewed after 20 passages with cells from a fresh stock of batch-frozen early passage cells. Cell lines are routinely checked for mycoplasma contamination (Genprobe). […] The number of cells on the plate are quantitated using a protein dye-binding assay (Monks et al., 1991). […] The optical densities are read from an automatic spectrophotometric plate reader (Dynatech) directly to a main frame computer (VAX 8600). […] Mean values and standard errors are determined from duplicate wells. […] The number of cells after treatment (P), as % of control, is calculated for every concentration of drug, as follows: [formula] wherein: T is optical density measurement for treated cells after 48 hours; C is optical density measurement for untreated cells after 48 hours; Co is optical density measurement for cells at the time of drug addition. IC50 of growth inhibition is calculated from the sets of P values using the RS-1 data package (BBN Software). Table 2 presents the results depicting the antiproliferative activity of the compounds of Formula I against an adult bovine aortic endothelial cell line (ABAE), as evaluated by PROTOCOL 1 and PROTOCOL 3. […]

[2] = system: Adult Bovine Aortic Endothelial (ABAE) cell line; assay: Antiproliferative activity in Adult Bovine Aortic Endothelial (ABAE) cell line, PROTOCOL 3; format: cell-based; details: for IC50: Bos taurus, 96 h, ABAE cells
Procedure: The antiproliferative activity of the compounds of Formula I in an Adult Bovine Aortic Endothelial (ABAE) cell line and in Human Tumor cells lines is evaluated in three similar assays that measure growth inhibition. The assays are identified as follows:
PROTOCOLS 1, 2, and 3 are described in greater detail hereinbelow. In general, according to PROTOCOLS 1 and 2, the target ABAE and/or Human Tumor cells are exposed to the compound of Formula I for 48 hours. PROTOCOL 3 exposes ABAE cells to the compounds for 4 days. A detailed description of the protocol is as follows:
Antiproliferative Activity in Adult Bovine Aortic Endothelial (ABAE) Cell Line
ABAE cells are grown in DMEM media (Mediatech Washington, D.C.) supplemented with 10% calf serum (Hyclone). ABAE cells are plated in 24-well dishes at 8,000 cells/well, followed by the addition of increasing concentrations of 7-[substituted amino]-9-[(substituted glycyl)amido]-6-demethyl-6-deoxytetra-cyclines. After four days, the cells are detached and counted. […] The growth inhibition (I) as % of control is calculated as follows: [formula] wherein: Nc is the number of cells in untreated wells;
Nt is the number of cells in treated wells;
No is the number of plated cells.
IC50 of growth inhibition is determined from the sets of I values plotted by Kaleidograph software (Abelbeck Software).
Table 2 presents the results depicting the antiproliferative activity of the compounds of Formula I against an adult bovine aortic endothelial cell line (ABAE), as evaluated by PROTOCOL 1 and PROTOCOL 3. The results are presented in terms of IC50 and are as follows.

| SMILES | IC50 [1] | activity upon incubation with cells ([2]; 4 day assay (Protocol 3)) | IC50 ([2]; 4 day assay (Protocol 3), FIG. 1 text, read-out: inhibits 50% of cell growth at) | IC50 ([2]; 4 days exposure, read-out: IC50 PROTOCOL 3) |
| --- | --- | --- | --- | --- |
| CN(C)CC(=O)Nc1cc(N(C)C)c2c(c1O)C(=O)C1=C(O)[C@]3(O)C(=O)C(C(N)=O)=C(O)[C@@H](N(C)C)C3CC1C2 (stereo partly drawn) [Example 2, [4S-(4a,12aa-1-4,7-Bis(dimethylamino)-9-[[(dimethylamino)acetyl]amino]]-1,4,,4a,5,5a,6,11,12a-octahvdro-3,10,12,12a-tetrahydroxy-1,11-dioxo-2-napththacenecarboxamidedihydrochloride] | 6.6 µg/mL | retains its activity | ~3 µg/mL | 3 µg/mL |
| CCCCCCNCC(=O)Nc1cc(N(C)C)c2c(c1O)C(=O)C1=C(O)[C@]3(O)C(=O)C(C(N)=O)=C(O)[C@@H](N(C)C)C3CC1C2 (stereo partly drawn) [Example 4, [4S-(4α,12aα)]-4,7-Bis(dimethylamino)-9-[(hexylamino)acetyl]amino]-1,4,4a,5,5a,6,11,12a-octahydro-3,10,12,12a-tetrahydroxy-1,11-dioxo-2-naphthacenecarboxamide dihydrochloride] | 2.4 µg/mL |  |  |  |
| CCCCCCCNCC(=O)Nc1cc(N(C)C)c2c(c1O)C(=O)C1=C(O)[C@]3(O)C(=O)C(C(N)=O)=C(O)[C@@H](N(C)C)C3CC1C2 (stereo partly drawn) [Example 5, [4S-(4α,12aα)]-4,7-Bis(dimethylamino)-9-[[(heptylamino)acetyl]amino]-1,4,4a,5,5a,6,11,12a-octahydro-3,10,12,12a-tetrahydroxy-1,11-dioxo-2-naphthacenecarboxamide dihydrochloride] | 2.2 µg/mL |  |  |  |
